Here are results for 2 molecules from patent US20080206866A1, “Reagency and Method for Preventing Time-Dependent Expression in Biological Cells” (ANDNAGEN AG, priority 2005, published 2008).

The subject of experiment [1] is tumour-associated transcripts GA733-2, MUC-1 and Her-2. Briefly: Detection of time-dependent induced transcription in treated blood samples of healthy donors (immunomagnetic cell selection, RT-PCR, Bioanalyser). Format: cell-based, human. To be noted: healthy donor. An excerpt:
(§1) In all the examples which are represented subsequently, an analysis was implemented as described in EP 02 732 726. Antibodies were thereby coupled to magnetic particles for cell selection. The antibodies represented subsequently in Table 1 were thereby used as antibodies.
(§2) The magnetic particles were thereby used in a concentration of 4×10^8 beads/ml (CELLection™ Pan Mouse IgG Kit, company Dynal). The ratios between the antibody concentration and the antibodies coupled thereto are reproduced in Table 2.
The magnetic particles prepared in this way were mixed in equal parts and added to the blood (EDTA) in 100 μl PBS per 5 ml sample.
After 30 min incubation in an overhead agitator, the magnetic particles which were present possibly as cell-antibody magnetic particle complexes, were washed three times with PBS by means of a magnetic particle concentrator (MPC®-S, company Dynal) and the adhering cells were treated subsequently corresponding to the mRNA isolation protocol described subsequently. […]
The thus produced amplificates of the cDNA were separated electrophoretically by means of a bioanalyser 2100 (company Agilent). […] Peaks with a level of <4.0 are evaluated as negative. Peaks, the level of which is 4.0 to 6.7, can be evaluated neither as positive nor as negative. In this way FIGS. 1 to 6 were produced and evaluated.

In a further experiment the test system is tumour cell line Calu-3. The experiment can be described thus: Detection of 2 inoculated Calu-3 tumour cells in treated blood samples. It counts as cell-based, human. To be noted: 2 Calu-3 cells.
Source text: as §1, §2
The magnetic particles prepared in this way were mixed in equal parts and added to the blood (EDTA) in 100 μl PBS per 5 ml sample. […]
The thus produced amplificates of the cDNA were separated electrophoretically by means of a bioanalyser 2100 (company Agilent). […] Peaks with a level of <4.0 are evaluated as negative. Peaks, the level of which is 4.0 to 6.7, can be evaluated neither as positive nor as negative. In this way FIGS. 1 to 6 were produced and evaluated. […]
Tracks 1, 4 and 7 thereby show a ladder with size markers, tracks 2, 5 and 8 show the amplified DNA fragments of the tumour-associated transcripts to be detected in a healthy donor and of an internal control of β-actin. […]

Where [2] appears, read: 0.01% (w/v) DU, 0 h, 24 h and 48 h at 4° C.
Setting [3] is: 0.025%, 0.05% and 0.075% (w/v) bronopol, 24 h at 4° C.

With `O=C(NCO)N(CO)C1(CO)C(=O)NC(=O)N1CO` (stereo not shown) [DU, diazolidinyl urea], in experiment [1] (setting [2]), the “analysis result for illegitimate time-dependent induced expression, samples without inoculated cells” value was “negative”. Moreover, in the experiment on tumour cell line Calu-3 (setting [2]), the “detection of tumour-associated transcripts of inoculated cells” value is recorded as “detected unequivocally”.
`O=[N+]([O-])C(Br)(CO)CO` [bronopol, 2-bromo-2-nitropropane-1,3-diol]: in experiment [1] (setting [3]), the “analysis result for illegitimate time-dependent induced expression” value is recorded as “negative”. In addition, in the experiment on tumour cell line Calu-3 (setting [3]), the “detection of tumour-associated transcripts of inoculated cells” value is “detected unequivocally”.
